Measurements as given in article PMC12410356 (International Journal for Parasitology: Drugs and Drug …, 2025).

Tests used:
[1] = test system: E. multilocularis metacestode vesicles; test: Metacestode vesicle viability assay (ATP, CellTiter-Glo); format: cell-based, Echinococcus multilocularis
Description: Viability was assessed after 12 days using the same metacestode vesicles as for the PGI release assay. Triton X-100 was added to each well to a final concentration of 0.1 %. Subsequently the metacestode vesicles were broken mechanically and 50 μL of the supernatant was mixed with 50 μL of CellTiter-Glo® buffer (Promega, Dübendorf, Switzerland). Measurements were performed on a HIDEX Sense microplate reader.

[2] = test system: E. multilocularis metacestode vesicles; test: Phosphoglucose isomerase (PGI) release assay (damage-marker release) on metacestode vesicles; format: cell-based, Echinococcus multilocularis; details: 10 μM; for PGI d5 (relative PGI release): 5 days; for PGI d12 (relative PGI release): 12 days
[3] = overview screen, 10 μM, singlets, 12 days, relative to DMSO control
[4] = overview screen, singlets, relative to 0.1 % Triton X-100, DMSO subtracted
[5] = confirmation screen, 10 μM, triplicates, mean, 12 days
[6] = confirmation screen, triplicates, mean

COCCn1cnc2c(O)nc(Nc3ccccc3)nc21 [MMV1782103]
Viability d12 (relative viability) [1, 3]: 66.6969% | PGI d5 (relative PGI release) [2, 4]: -0.2041% | PGI d12 (relative PGI release) [2, 4]: -2.0996%

Cc1[nH]c2ccccc2c1CCNCc1ccc(/C=C/C(=O)NO)cc1 [MMV010036]
Viability d12 (relative viability) [1, 3]: 57.5391% | PGI d5 (relative PGI release) [2, 4]: 1.148% | PGI d12 (relative PGI release) [2, 4]: -1.326%

Cc1ccc(Oc2ccccc2-c2csc(N=C3NCCCN3)n2)c(C)c1 [MMV1634493]
Viability d12 (relative viability) [1, 3]: 36.7387% | PGI d5 (relative PGI release) [2, 4]: 4.111% | PGI d12 (relative PGI release) [2, 4]: 7.6311%

COc1ccccc1CN[C@H]1C2CCN(CC2)[C@H]1C(c1ccccc1)c1ccccc1 [MMV690480]
Viability d12 (relative viability) [1, 3]: 61.0456% | PGI d5 (relative PGI release) [2, 4]: -0.6012% | PGI d12 (relative PGI release) [2, 4]: -18.8913%

C[C@@H](NC(=O)c1ccccc1-c1ccccc1)B(O)O [MMV1582493]
Viability d12 (relative viability) [1, 3]: 135.265% | PGI d5 (relative PGI release) [2, 4]: -2.006% | PGI d12 (relative PGI release) [2, 4]: 35.0936%

O=C(CC1Sc2ncnn2C1=O)Nc1ccc(Br)cc1 (stereo not drawn) [MMV214956]
Viability d12 (relative viability) [1, 3]: 47.1606% | PGI d5 (relative PGI release) [2, 4]: -1.614% | PGI d12 (relative PGI release) [2, 4]: -20.0728%

NC(=O)c1cnc2ccc(S(=O)(=O)c3ccccc3)cc2c1Nc1ccc(O)cc1 [MMV1580848]
Viability d12 (relative viability) [1, 3]: 51.7682% | PGI d5 (relative PGI release) [2, 4]: -0.9531% | PGI d12 (relative PGI release) [2, 4]: 29.1599%

O=C(Nc1ccc(N2CCN(C(=O)c3ccccc3)CC2)cc1)c1ccc2c(c1)OCO2 [MMV1580505]
Viability d12 (relative viability) [1, 3]: 160.891% | PGI d5 (relative PGI release) [2, 4]: -0.142% | PGI d12 (relative PGI release) [2, 4]: -0.2928%

OB1OCc2cc(Cl)ccc21 [MMV1634363]
Viability d12 (relative viability) [1, 3]: 101.699% | PGI d5 (relative PGI release) [2, 4]: -0.4278% | PGI d12 (relative PGI release) [2, 4]: -12.2339%

Cc1c(F)cccc1NC(=O)Nc1ccc(Cl)c(S(=O)(=O)[C@H]2CCCNC2)c1O [MMV1581034]
Viability d12 (relative viability) [1, 3]: 88.9358% | PGI d5 (relative PGI release) [2, 4]: 1.533% | PGI d12 (relative PGI release) [2, 4]: -0.4746%

N#Cc1cc([N+](=O)[O-])ccc1Oc1ccccc1Cl [MMV1580800]
Viability d12 (relative viability) [1, 3]: 90.6917% | PGI d5 (relative PGI release) [2, 4]: 1.0953% | PGI d12 (relative PGI release) [2, 4]: -9.284%

Nc1nc(=O)[nH]cc1F [MMV004508]
Viability d12 (relative viability) ([1]; 10 µM): 219.514% | PGI d5 (relative PGI release) [2, 4]: -1.885% | PGI d12 (relative PGI release) [2, 4]: -20.764%

OC1O[C@H](CSc2ccc(F)cc2)[C@@H](O)[C@H]1O (stereo partly drawn) [MMV1581550]
Viability d12 (relative viability) [1, 3]: 95.5206% | PGI d5 (relative PGI release) [2, 4]: -2.303% | PGI d12 (relative PGI release) [2, 4]: -13.5328%

Nc1nc2c(ncn2/C=C2/CC2(CO)CO)c(=O)[nH]1 [MMV1782210]
Viability d12 (relative viability) [1, 3]: 144.056% | PGI d5 (relative PGI release) [2, 4]: 0.1371% | PGI d12 (relative PGI release) [2, 4]: -1.147%

O=C(/C(=C/c1ccc(Cl)cc1Cl)n1ccnc1)c1ccc(Cl)cc1 [MMV1634491]
Viability d12 (relative viability) [1, 5]: 83.69% | Viability d12 (relative viability) [1, 3]: 14.6955% | PGI d5 (relative PGI release) [2, 6]: 0.16% | PGI d12 (relative PGI release) [2, 6]: 5.15% | PGI d5 (relative PGI release) [2, 4]: 24.947% | PGI d12 (relative PGI release) [2, 4]: 25.566%

CCCCCOc1ccc(/C=C2\Oc3c(ccc(O)c3O)C2=O)c(O)c1 [MMV1580851]
Viability d12 (relative viability) [1, 3]: 137.102% | PGI d5 (relative PGI release) [2, 4]: 1.174% | PGI d12 (relative PGI release) [2, 4]: -13.3457%

CCCCCc1ccc(C(=O)NCCn2cc(CCCCCc3c[nH]c(N)n3)nn2)cc1.Cl [MMV1580847]
Viability d12 (relative viability) [1, 3]: 106.136% | PGI d5 (relative PGI release) [2, 4]: 2.795% | PGI d12 (relative PGI release) [2, 4]: 5.023%

O=C(Nc1ncc(Cc2cccc3ccccc23)s1)C1CCCCC1 [MMV1593532]
Viability d12 (relative viability) [1, 3]: 94.209% | PGI d5 (relative PGI release) [2, 4]: -1.117% | PGI d12 (relative PGI release) [2, 4]: -3.615%

O=c1nc(N2CCN(CC3CCCCC3)CC2)sc2c([N+](=O)[O-])cc(C(F)(F)F)cc12 [MMV1578885]
Viability d12 (relative viability) [1, 5]: 97.20% | Viability d12 (relative viability) [1, 3]: 20.6104% | PGI d5 (relative PGI release) [2, 6]: -0.21% | PGI d12 (relative PGI release) [2, 6]: 0.0323% | PGI d5 (relative PGI release) [2, 4]: 15.7367% | PGI d12 (relative PGI release) [2, 4]: 89.9274%

NC[C@H]1OB(O)c2c(OCCCO)cccc21 [MMV1578566]
Viability d12 (relative viability) [1, 3]: 7.765% | PGI d5 (relative PGI release) [2, 4]: 0.6057% | PGI d12 (relative PGI release) [2, 4]: -3.009%

Cc1cccc(C)c1C(=O)Nc1nc(-c2ccccn2)cc2ccccc12 [MMV1581558]
Viability d12 (relative viability) [1, 3]: 99.5465% | PGI d5 (relative PGI release) [2, 4]: 1.519% | PGI d12 (relative PGI release) [2, 4]: 3.408%

CC(C)(C)OC(=O)NCc1ccc(C(=O)N[C@H]2CCOC2=O)cc1 [MMV1581547]
Viability d12 (relative viability) [1, 3]: 30.2259% | PGI d5 (relative PGI release) [2, 4]: -1.162% | PGI d12 (relative PGI release) [2, 4]: 45.6301%

COc1ccc(C(C)(C)C)cc1NC(=O)C(=O)c1ccc(OCCN2CCOCC2)c2ccccc12 [MMV1782209]
Viability d12 (relative viability) [1, 3]: 152.31% | PGI d5 (relative PGI release) [2, 4]: 0.2921% | PGI d12 (relative PGI release) [2, 4]: 0.2691%

COc1ccc(CNC(=O)C2CCN(C(C)c3cccc4ccccc34)CC2)cc1 (stereo not drawn) [MMV1634397]
Viability d12 (relative viability) [1, 3]: 68.3168% | PGI d5 (relative PGI release) [2, 4]: 1.669% | PGI d12 (relative PGI release) [2, 4]: -0.9153%

NC(=O)c1cnccn1 [MMV003249]
Viability d12 (relative viability) [1, 3]: 123.464% | PGI d5 (relative PGI release) [2, 4]: 1.909% | PGI d12 (relative PGI release) [2, 4]: -3.346%

CC(C)=CCC/C(C)=C\CNCCNC1C2CC3CC(C2)CC1C3 (stereo not drawn) [MMV687273]
Viability d12 (relative viability) [1, 3]: 47.5933% | PGI d5 (relative PGI release) [2, 4]: 0.6754% | PGI d12 (relative PGI release) [2, 4]: -4.6575%

COc1ccc2sc3c(c2c1)NC(C)CNC3=O (stereo not drawn) [MMV1782115]
Viability d12 (relative viability) [1, 3]: 114.23% | PGI d5 (relative PGI release) [2, 4]: -1.121% | PGI d12 (relative PGI release) [2, 4]: 1.77%

COc1ccc(C)cc1NC(=O)c1ccc(S(=O)(=O)N2CCCCC2)cc1 [MMV1578579]
Viability d12 (relative viability) [1, 3]: 52.1022% | PGI d5 (relative PGI release) [2, 4]: -1.553% | PGI d12 (relative PGI release) [2, 4]: -13.2873%

CONC(=N)c1ccc(-c2ccc(-c3ccc(C(=N)NOC)cc3)o2)cc1 [MMV000059]
Viability d12 (relative viability) [1, 3]: 226.694% | PGI d5 (relative PGI release) [2, 4]: -1.411% | PGI d12 (relative PGI release) [2, 4]: -24.9567%

CCN1CCN(Cc2nc3ccc([N+](=O)[O-])cc3c(=O)n2-c2ccccc2F)CC1 [MMV275100]
Viability d12 (relative viability) [1, 3]: 107.175% | PGI d5 (relative PGI release) [2, 4]: 0.006823% | PGI d12 (relative PGI release) [2, 4]: -0.1551%

Cc1cc(C)n(O)c(=O)c1 [MMV1782389]
Viability d12 (relative viability) [1, 3]: 156.473% | PGI d5 (relative PGI release) [2, 4]: -2.677% | PGI d12 (relative PGI release) [2, 4]: -25.4049%

O=C(/C=C\n1cnc(-c2cc(C(F)(F)F)cc(C(F)(F)F)c2)n1)NNc1ccccn1 [MMV1580493]
Viability d12 (relative viability) [1, 3]: 159.076% | PGI d5 (relative PGI release) [2, 4]: 1.061% | PGI d12 (relative PGI release) [2, 4]: 0.9356%

Nc1nnnn1CCOc1c2[nH]c3ccc(Cl)cc3c2cc2c1[nH]c1ccc(Cl)cc12 [MMV1633966]
Viability d12 (relative viability) [1, 3]: 104.455% | PGI d5 (relative PGI release) [2, 4]: 3.53% | PGI d12 (relative PGI release) [2, 4]: 16.3673%

CCOc1ccc(C(=O)NCCc2ccccc2)cc1 [MMV124656]
Viability d12 (relative viability) [1, 3]: 194.706% | PGI d5 (relative PGI release) [2, 4]: -0.3368% | PGI d12 (relative PGI release) [2, 4]: 10.9951%
